Source: patent US9951032B2, “Antibacterial compounds” (Janssen Sciences Ireland UC, priority 2012, dated 2018)
≈ marks a conversion by molar mass, not a printed value. Read-outs that look alike come from different tables or passages of the source.

Tests used:
[1] = system: Mycobacterium tuberculosis (strain H37RV); test: MIC90 determination for testing compounds against M. tuberculosis; assay type: cell-based
[2] = system: Mycobacterium tuberculosis (strain H37RV); test: Time kill assay (kill kinetics), broth dilution method; assay type: cell-based

## O=C(Nc1nc2cc(Cl)ccc2o1)NC12CC3CC(CC(C3)C1)C2
other
  melting point: > 250 °C

## O=C(Nc1nc2c(F)cc(F)cc2s1)NC12CC3CC(CC(C3)C1)C2 [Compound 1]
[1]; Mycobacterium tuberculosis, H37RV, LV12076, 10% human serum
  MIC90: 1 µg/mL (≈ 2.75 µM)
[1]; Mycobacterium tuberculosis, H37RV, LV12086, 20% human serum
  MIC90: 1 µg/mL (≈ 2.75 µM)
[1]; Mycobacterium tuberculosis, H37RV, LV12086, no human serum
  MIC90: 0.25 µg/mL (≈ 0.688 µM)
[1]; Mycobacterium tuberculosis, H37RV, LV12076, no human serum
  MIC90: 0.5 µg/mL (≈ 1.38 µM)
other
  melting point: > 260 °C
[2]; 0.5 μg/ml, day 0
  log CFU/ml: 6.35 log CFU/ml
[2]; 0.5 μg/ml, day 1
  log CFU/ml: 5.57 log CFU/ml
[2]; 0.5 μg/ml, day 4
  log CFU/ml: 2.00 log CFU/ml
[2]; 0.5 μg/ml, day 7
  log CFU/ml: 2.00 log CFU/ml
[2]; 0.5 μg/ml, day 14
  log CFU/ml: 2.00 log CFU/ml
[2]; 0.5 μg/ml, day 21
  log CFU/ml: 2.00 log CFU/ml
[2]; 5 μg/ml, day 0
  log CFU/ml: 6.35 log CFU/ml
[2]; 5 μg/ml, day 1
  log CFU/ml: 6.15 log CFU/ml
[2]; 5 μg/ml, day 4
  log CFU/ml: 3.08 log CFU/ml
[2]; 5 μg/ml, day 7
  log CFU/ml: 2.00 log CFU/ml
[2]; 5 μg/ml, day 14
  log CFU/ml: 2.00 log CFU/ml
[2]; 5 μg/ml, day 21
  log CFU/ml: 2.00 log CFU/ml

## NNC(=O)c1ccncc1 [Isoniazid, reference compound]
[1]; LV12076, 10% human serum
  MIC90: 0.03 µg/mL (≈ 0.219 µM)
[1]; LV12086, 20% human serum
  MIC90: 0.03 µg/mL (≈ 0.219 µM)
[1]; LV12086, no human serum
  MIC90: 0.03 µg/mL (≈ 0.219 µM)
[1]; Mycobacterium tuberculosis, H37RV, LV12076, no human serum, read-out: MIC90
  MIC90: 0.03 µg/mL (≈ 0.219 µM)
[2]; 1 μg/ml, day 0
  log CFU/ml: 6.35 log CFU/ml
[2]; 1 μg/ml, day 1
  log CFU/ml: 3.57 log CFU/ml
[2]; 1 μg/ml, day 4
  log CFU/ml: 2.00 log CFU/ml
[2]; 1 μg/ml, day 7
  log CFU/ml: 2.00 log CFU/ml
[2]; 1 μg/ml, day 14
  log CFU/ml: 2.00 log CFU/ml
[2]; 1 μg/ml, day 21
  log CFU/ml: 2.00 log CFU/ml
